Laboratory results taken from ChEMBL document CHEMBL1128534, “Cyclic lactam alpha-melanotropin analogues of Ac-Nle4-cyclo[Asp5, D-Phe7,Lys10] alpha-melanocyte-stimulating hormone-(4-10)-NH2 with bulky aromatic amino acids at position 7 show high antagonist potency and selectivity at specific melanocortin receptors” (J Med Chem, 1995).

How the values were obtained:
Format in all cases: functional
[1] = biological target: Melanocyte-stimulating hormone receptor (Mus musculus, UniProt Q01727)
[2] = biological target: T1, Melanocyte-stimulating hormone receptor (Homo sapiens, UniProt Q01726)
[3] = biological target: T1, Melanocyte-stimulating hormone receptor; assay: Evaluated for agonist at […] frog (Rana pipiens) skin assay

T1 sequence (Q01726 whole entry): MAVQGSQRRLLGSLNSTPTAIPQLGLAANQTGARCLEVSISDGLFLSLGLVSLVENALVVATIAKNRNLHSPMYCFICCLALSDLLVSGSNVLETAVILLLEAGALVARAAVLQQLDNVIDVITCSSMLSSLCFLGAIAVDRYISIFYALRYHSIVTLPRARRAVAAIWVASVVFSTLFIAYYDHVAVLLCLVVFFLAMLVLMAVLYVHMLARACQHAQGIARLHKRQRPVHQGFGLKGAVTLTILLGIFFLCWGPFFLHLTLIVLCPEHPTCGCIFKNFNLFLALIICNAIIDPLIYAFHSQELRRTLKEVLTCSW
Chain of Melanocyte-stimulating hormone receptor (Mus musculus, UniProt Q01727) (Q01727 whole entry): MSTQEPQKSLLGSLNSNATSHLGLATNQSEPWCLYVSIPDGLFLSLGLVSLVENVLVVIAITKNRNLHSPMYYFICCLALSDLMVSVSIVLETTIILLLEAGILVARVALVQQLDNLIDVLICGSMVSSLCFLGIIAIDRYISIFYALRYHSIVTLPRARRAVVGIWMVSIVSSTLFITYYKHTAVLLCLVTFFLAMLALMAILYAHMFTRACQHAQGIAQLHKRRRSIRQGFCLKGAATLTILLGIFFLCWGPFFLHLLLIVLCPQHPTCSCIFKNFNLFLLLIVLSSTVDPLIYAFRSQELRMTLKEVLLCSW

Compound | EC50 [1] | EC50 [2] | EC50 [3]
CCCC[C@H](NC(C)=O)C(=O)N[C@H]1CC(=O)NCCCC[C@@H](C(N)=O)NC(=O)[C@H](Cc2c[nH]c3ccccc23)NC(=O)[C@H](CCCNC(=N)N)NC(=O)[C@@H](Cc2ccc3ccccc3c2)NC(=O)[C@H](Cc2c[nH]cn2)NC1=O | 0.039 nM |  | 
CCCC[C@H](NC(C)=O)C(=O)N[C@H]1CC(=O)NCCCC[C@@H](C(N)=O)NC(=O)[C@H](Cc2c[nH]c3ccccc23)NC(=O)[C@H](CCCNC(=N)N)NC(=O)[C@@H](Cc2ccc(Cl)cc2)NC(=O)[C@H](Cc2cnc[nH]2)NC1=O | 0.0095 nM | 0.005 nM | 2 nM
CCCC[C@H](NC(C)=O)C(=O)N[C@H]1CC(=O)NCCCC[C@@H](C(N)=O)NC(=O)[C@H](Cc2c[nH]c3ccccc23)NC(=O)[C@H](CCCN=C(N)N)NC(=O)[C@@H](Cc2ccc(F)cc2)NC(=O)[C@H](Cc2c[nH]cn2)NC1=O | 0.026 nM | 0.016 nM | 0.1 nM
CCCC[C@H](NC(C)=O)C(=O)N[C@H]1CC(=O)NCCCC[C@@H](C(N)=O)NC(=O)[C@H](Cc2c[nH]c3ccccc23)NC(=O)[C@H](CCCN=C(N)N)NC(=O)[C@@H](Cc2ccc(I)cc2)NC(=O)[C@H](Cc2c[nH]cn2)NC1=O | 0.19 nM | 0.055 nM | 
